Assays:
DDR1 mRNA = DDR1 mRNA expression in PBMC by Northern blotting; format: cell-based, human; settings: 8 hours, TNF-α 5 ng/ml, IL-1β 10 ng/ml, IFN-γ 50 U/ml, GM-CSF 10 ng/ml, LPS 1 μg/ml, PHA 5 μg/ml
Procedure: PMN and PBMC were maintained at a density of 5×10^6 cells/ml in the complete medium in six-well tissue culture cluster (Coster, Cambridge, Mass.; 3 ml/well). Total RNA was extracted from each culture by using TRIZOL® Reagent. PolyA mRNA was purified on Oligotex columns (Qiagen, Valencia, Calif.). Northern blot analysis was performed as described (Yoshimura, J. Immunol. 150:5025, 1993), except that ULTRAhyb (Ambion) was used. A human DDR1 cDNA (757-bp) was obtained by PCR from a U-105 human glioblastoma cell line cDNA library and was ligated into the EcoRI/HindIII site of the pBluescript (Stratagene, La Jolla, Calif.). The sense primer was 5′-[…]-3′ (SEQ ID NO: 2; corresponding to residues between 68 and 87 in the nucleotide sequence of the trkE cDNA, GenBank accession number X74979) and the antisense primer was 5′-[…]-3′ (SEQ ID NO: 3; corresponding to residues between 805 and 824 in the nucleotide sequence of the trkE cDNA).
Freshly isolated PBMC expressed only a low level of DDR1 mRNA. The expression level was increased about eightfold when the cells were incubated in either RPMI 1640 or RPMI 1640 containing 10% FCS.

DDR1b = target: T1, DDR1b (Homo sapiens, UniProt Q08345); experiment: Autophosphorylation of DDR1b overexpressed in THP-1 cells; format: cell-based
T1 construct: one of the clones, clone 11B, contained the full-length human DDR1b cDNA; expressed in transfected cells; host or cells: THP-1 human monocytic leukemia cells, retroviral vector pLXSN, G418-selected clones
Procedure: Using the retrovirus-infected cell lines, the effect of collagen type I on the phosphorylation of DDR1 proteins was tested. Two million cells in 3 ml complete medium were added onto collagen type I-coated plastic plates and incubated at 37° C. for various times. Cell lysates were prepared and immunoprecipitation was performed with the anti-DDR1 antibody. One-fourth of the immunoprecipitated samples was subjected to SDS-PAGE and Western blotting. The membranes were blotted with anti-pTyr and anti-DDR1 antibody. Low levels of constitutive autophosphorylation of both receptors were detected. The levels of autophosphorylation increased slightly at 15 minutes and peaked at 90 minutes after activation of the cells on collagen type I-coated plastic plates. The peak level was maintained for up to 240 minutes for DDR1a, which is consistent with the previously reported delayed kinetics of […] autophosphorylation in other cell types (Vogel FASEB J, (Suppl.), S77-S82, 1999). In contrast, autophosphorylation of DDR1b decreased after 90 minutes of collagen-activation.
Parental, mock, DDR1a- or DDR1b-overexpressing THP-1 cells were plated at 5×10^6/ml on uncoated tissue culture plates and stimulated with PMA (10 nM) for 24 hours, and then starved in RMPI 1640 without FCS for 10 hours. Subsequently cells were washed three times with PBS, and then incubated in the presence of 50 μg/ml collagen type I for various times.
Ten million cells were lysed on ice for 20 minutes in a buffer containing 50 mM NaCl, 20 mM Tris-HCl, 50 mM sodium fluoride, 30 mM Na4P2O7, 5 mM EGTA, 3 mM sodium orthovanadate, 1% Triton X-100, 1 mg/ml leupeptin, 1 mM PMSF, 1 mg/ml aprotinin, 1 mg/ml pepstatinA and 100 μM sodium orthovanadate treated with H2O2. […]
Eluted proteins were analyzed on 8% polyacrylamide gels by SDS-PAGE and transferred electrophoretically to nitrocellulose membranes at 150 mA for 1 hour by a semi-dry system. […] To detect phosphorylated or nonphosphorylated p38 MAP kinase or ATF-2, 20 μl of cell lysates were directly mixed with 20 μl of sample buffer and then analyzed.

[1] = PMA-treated cells, 50 μg/ml collagen type I

T1 sequence (Q08345 19-913): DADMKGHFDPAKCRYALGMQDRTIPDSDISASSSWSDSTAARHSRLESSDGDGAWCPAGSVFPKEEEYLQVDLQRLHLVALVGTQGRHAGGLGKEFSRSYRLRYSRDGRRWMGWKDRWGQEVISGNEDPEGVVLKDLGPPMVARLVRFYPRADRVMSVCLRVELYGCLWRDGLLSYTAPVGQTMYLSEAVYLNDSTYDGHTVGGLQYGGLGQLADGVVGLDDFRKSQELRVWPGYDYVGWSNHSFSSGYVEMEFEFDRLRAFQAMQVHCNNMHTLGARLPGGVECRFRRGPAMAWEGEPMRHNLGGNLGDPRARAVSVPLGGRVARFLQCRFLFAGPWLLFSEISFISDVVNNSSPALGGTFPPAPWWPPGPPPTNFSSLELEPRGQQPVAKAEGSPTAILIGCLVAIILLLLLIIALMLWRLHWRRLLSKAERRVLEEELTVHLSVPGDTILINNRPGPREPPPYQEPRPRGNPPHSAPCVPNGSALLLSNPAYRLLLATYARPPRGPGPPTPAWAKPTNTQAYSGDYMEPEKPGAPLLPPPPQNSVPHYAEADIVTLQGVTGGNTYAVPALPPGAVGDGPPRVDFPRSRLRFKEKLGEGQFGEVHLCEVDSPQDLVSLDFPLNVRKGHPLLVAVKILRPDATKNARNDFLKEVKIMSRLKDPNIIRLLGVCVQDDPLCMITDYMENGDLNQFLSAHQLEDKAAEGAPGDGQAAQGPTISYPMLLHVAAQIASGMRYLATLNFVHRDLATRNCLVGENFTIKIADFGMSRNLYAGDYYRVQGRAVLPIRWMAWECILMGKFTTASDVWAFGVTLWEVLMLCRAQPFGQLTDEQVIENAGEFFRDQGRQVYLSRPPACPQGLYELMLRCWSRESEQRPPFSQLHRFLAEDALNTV

Substance | level of DDR1 mRNA expression (DDR1 mRNA) | time autophosphorylation detectable (DDR1b; [1]) | time of peak autophosphorylation (DDR1b; [1]) | time of peak autophosphorylation (DDR1b; collagen type I-coated plates, cells not PMA-treated)
TNF-α | further augmented | – | – | –
collagen | – | 30 min | 60 min | 90 min
